Data taken from US20080275058A1, “N-Substituted-1H-Quinoline-2,4-Diones, Preparation Method Thereof, And Pharmaceutical Composition Containing The Same” (KOREA RESEARCH INSTITUTE OF CHEMICAL TECHNOLOGY, priority 2005, published 2008).
Like-named read-outs stand apart in the source and are kept apart here.

Experiments:
[1] = molecular target: T1, Human serotonin 5-HT6 receptor (Homo sapiens, UniProt P50406); test: [3H]LSD binding assay on cloned 5-HT6 receptor membranes
T1 construct: made in house; host or cells: insect Sf21 cells (baculovirus vector BacPAK8)
T1 sequence (P50406 whole entry): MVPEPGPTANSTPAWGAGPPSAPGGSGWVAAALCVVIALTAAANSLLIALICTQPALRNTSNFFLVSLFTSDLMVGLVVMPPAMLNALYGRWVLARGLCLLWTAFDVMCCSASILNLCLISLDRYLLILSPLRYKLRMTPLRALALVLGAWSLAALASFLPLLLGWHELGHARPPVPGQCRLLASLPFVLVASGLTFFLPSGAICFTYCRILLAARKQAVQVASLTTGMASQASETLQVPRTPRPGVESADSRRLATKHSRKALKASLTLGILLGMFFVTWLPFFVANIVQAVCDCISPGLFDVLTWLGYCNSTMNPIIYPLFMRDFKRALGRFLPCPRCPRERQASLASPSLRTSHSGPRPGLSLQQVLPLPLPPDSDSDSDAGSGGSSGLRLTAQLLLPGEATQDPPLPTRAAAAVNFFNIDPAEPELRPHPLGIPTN

[2] = molecular target: T2, 5-HT7 (Homo sapiens, UniProt P34969); test: Radioligand binding, 5-HT7 ([3H]LSD); details: Table 4; [3H]LSD 3 nM; read-out: Binding affinity, IC50 (nM) 5-HT7
T2 construct: purchased Euroscreen/BioSignal Packard Inc
T2 sequence (P34969 whole entry): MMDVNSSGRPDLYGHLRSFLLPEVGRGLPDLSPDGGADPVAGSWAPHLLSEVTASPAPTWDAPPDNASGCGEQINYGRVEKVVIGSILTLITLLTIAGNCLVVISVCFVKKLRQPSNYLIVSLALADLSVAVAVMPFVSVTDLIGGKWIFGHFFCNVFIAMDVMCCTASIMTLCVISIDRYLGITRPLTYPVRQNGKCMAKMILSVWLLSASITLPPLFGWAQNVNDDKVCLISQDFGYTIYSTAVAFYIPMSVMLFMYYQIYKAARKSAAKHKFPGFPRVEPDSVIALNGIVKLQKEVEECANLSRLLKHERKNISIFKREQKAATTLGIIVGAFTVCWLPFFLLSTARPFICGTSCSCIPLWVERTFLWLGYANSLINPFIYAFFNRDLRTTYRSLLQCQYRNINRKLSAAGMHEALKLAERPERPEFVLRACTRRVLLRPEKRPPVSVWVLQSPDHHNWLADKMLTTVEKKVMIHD

[3] = molecular target: T3, 5-HT1a (Homo sapiens, UniProt P08908); test: Radioligand binding, 5-HT1a ([3H]8-OH-DPAT); details: Table 4; [3H]8-OH-DPAT 0.5 nM; read-out: Binding affinity, IC50 (nM) 5-HT1a
T3 construct: purchased Euroscreen/BioSignal Packard Inc
T3 sequence (P08908 1-422): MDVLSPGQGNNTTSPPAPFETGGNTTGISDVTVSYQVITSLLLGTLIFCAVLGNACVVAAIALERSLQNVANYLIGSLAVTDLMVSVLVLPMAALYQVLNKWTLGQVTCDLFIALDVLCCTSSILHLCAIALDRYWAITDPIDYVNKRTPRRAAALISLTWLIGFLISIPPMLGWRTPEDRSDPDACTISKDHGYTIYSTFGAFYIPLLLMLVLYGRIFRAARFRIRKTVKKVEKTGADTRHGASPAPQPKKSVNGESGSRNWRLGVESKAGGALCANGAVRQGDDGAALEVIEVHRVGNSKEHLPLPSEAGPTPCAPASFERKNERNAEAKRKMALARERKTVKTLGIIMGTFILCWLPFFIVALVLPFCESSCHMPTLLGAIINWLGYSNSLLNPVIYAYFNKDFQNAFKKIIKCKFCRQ
Method: Radioligand bindings were performed according to the test method provided by the supplier of receptor membrane (Euroscreen/BioSignal Packard Inc.). The detailed assay conditions and the results were shown in the following Table 3 and Table 4, respectively.

[4] = molecular target: T4, 5-HT2a (Homo sapiens, UniProt P28223); test: Radioligand binding, 5-HT2a ([3H]Ketanserin); details: Table 4; [3H]Ketanserin 1 nM; read-out: Binding affinity, IC50 (nM) 5-HT2a
T4 construct: purchased Euroscreen/BioSignal Packard Inc
T4 sequence (P28223 whole entry): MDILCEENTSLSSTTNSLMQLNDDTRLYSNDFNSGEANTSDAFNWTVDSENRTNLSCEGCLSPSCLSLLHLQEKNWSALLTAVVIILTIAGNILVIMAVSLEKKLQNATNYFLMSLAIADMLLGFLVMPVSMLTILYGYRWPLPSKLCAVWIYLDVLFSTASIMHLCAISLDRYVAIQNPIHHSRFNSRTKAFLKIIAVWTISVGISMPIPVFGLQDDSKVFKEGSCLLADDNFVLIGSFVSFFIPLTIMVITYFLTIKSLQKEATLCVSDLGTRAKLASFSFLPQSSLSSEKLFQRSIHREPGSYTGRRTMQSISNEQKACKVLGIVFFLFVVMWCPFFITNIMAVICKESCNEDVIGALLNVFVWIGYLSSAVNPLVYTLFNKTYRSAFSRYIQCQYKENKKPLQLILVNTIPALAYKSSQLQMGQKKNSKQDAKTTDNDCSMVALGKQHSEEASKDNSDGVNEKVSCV

[5] = molecular target: T5, 5-HT2c (Homo sapiens, UniProt P28335); test: Radioligand binding, 5-HT2c ([3H]Mesulergine); details: Table 4; [3H]Mesulergine 1 nM; read-out: Binding affinity, IC50 (nM) 5-HT2c
T5 construct: purchased Euroscreen/BioSignal Packard Inc
T5 sequence (P28335 33-458): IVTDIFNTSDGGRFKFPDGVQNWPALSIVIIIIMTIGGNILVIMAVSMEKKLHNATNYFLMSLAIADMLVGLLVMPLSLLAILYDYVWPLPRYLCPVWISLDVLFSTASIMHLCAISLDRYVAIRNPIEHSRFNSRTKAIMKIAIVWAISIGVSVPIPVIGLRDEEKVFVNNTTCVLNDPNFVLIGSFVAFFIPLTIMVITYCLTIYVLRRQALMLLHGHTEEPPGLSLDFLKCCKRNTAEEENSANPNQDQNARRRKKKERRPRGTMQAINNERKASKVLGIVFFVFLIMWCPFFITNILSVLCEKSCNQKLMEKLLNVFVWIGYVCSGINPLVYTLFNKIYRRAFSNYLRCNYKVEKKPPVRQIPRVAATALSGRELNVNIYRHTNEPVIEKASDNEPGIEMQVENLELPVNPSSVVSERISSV

[6] = molecular target: D1 (Homo sapiens, UniProt P21728); test: Radioligand binding, dopamine D1; details: Table 4; read-out: Binding affinity, IC50 (nM) D1
D1, sequence (P21728 whole entry): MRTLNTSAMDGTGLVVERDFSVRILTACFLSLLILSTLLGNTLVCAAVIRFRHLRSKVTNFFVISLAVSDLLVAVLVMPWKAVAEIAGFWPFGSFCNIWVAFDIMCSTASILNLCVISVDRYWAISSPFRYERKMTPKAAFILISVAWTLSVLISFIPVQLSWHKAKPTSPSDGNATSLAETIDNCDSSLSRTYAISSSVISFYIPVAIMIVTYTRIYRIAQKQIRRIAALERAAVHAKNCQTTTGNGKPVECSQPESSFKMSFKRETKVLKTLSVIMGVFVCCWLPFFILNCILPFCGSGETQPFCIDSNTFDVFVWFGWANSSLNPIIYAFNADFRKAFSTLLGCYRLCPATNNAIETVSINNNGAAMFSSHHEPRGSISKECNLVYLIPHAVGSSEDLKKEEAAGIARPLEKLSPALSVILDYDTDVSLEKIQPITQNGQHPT

[7] = molecular target: T6, hD2L (Homo sapiens, UniProt P14416); test: Radioligand binding, dopamine D2 ([3H]spiperone); details: Table 4; [3H]spiperone 1 nM; read-out: Binding affinity, IC50 (nM) D2
T6 construct: purchased BioSignal Packard Inc., Montreal, Canada
T6 sequence (P14416 whole entry): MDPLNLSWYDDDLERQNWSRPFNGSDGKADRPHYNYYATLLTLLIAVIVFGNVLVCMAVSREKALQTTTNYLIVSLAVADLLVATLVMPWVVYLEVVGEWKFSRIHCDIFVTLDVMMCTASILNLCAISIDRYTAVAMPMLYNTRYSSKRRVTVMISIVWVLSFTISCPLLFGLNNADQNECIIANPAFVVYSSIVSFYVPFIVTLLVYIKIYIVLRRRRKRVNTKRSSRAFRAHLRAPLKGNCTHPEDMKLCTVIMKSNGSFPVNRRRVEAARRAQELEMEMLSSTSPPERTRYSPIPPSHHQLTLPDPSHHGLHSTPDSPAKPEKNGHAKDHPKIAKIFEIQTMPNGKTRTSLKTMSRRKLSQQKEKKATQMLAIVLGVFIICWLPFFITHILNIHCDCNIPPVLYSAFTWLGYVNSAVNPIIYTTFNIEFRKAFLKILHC
Method: (§1) 2-2: Binding assays of Dopamine Receptor Family
(§2) The radioligands used were [^3H] spiperone (for hD2L and hD3 receptors, 1 nM) and [^3H] YM-09151-2 (for hD4.2 receptor, 0.06 nM). Radioligand bindings were performed by the protocols provided by the supplier of receptor membranes (BioSignal Packard Inc., Montreal, Canada). Briefly, the buffer used in D2 or D3 receptor binding assay was 50 mM Tris-HCl (pH 7.4), 10 mM MgCl2, 1 mM EDTA, or 50 mM Tris-HCl (pH 7.4), 5 mM MgCl2, 5 mM EDTA, 5 mM KCl, 1.5 mM CaCl2, 120 mM NaCl, respectively. In [^3H] YM-09151-2 receptor binding assays, the buffer containing 50 mM Tris-HCl (pH 7.4), 5 mM MgCl2, 5 mM EDTA, 5 mM KCl and 1.5 mM CaCl2 was used. […] Competition binding studies were carried out with 7-8 concentrations of the test compound run in duplicate tubes, and isotherms from three assays were calculated by computerized nonlinear regression analysis (GraphPad Prism Program, San Diego, […]) to yield median inhibitory concentration (IC50) values.

[8] = molecular target: T7, hD3 (Homo sapiens, UniProt P35462); test: Radioligand binding, dopamine D3 ([3H]spiperone); details: Table 4; [3H]spiperone 1 nM; read-out: Binding affinity, IC50 (nM) D3
T7 construct: purchased BioSignal Packard Inc., Montreal, Canada
T7 sequence (P35462 whole entry): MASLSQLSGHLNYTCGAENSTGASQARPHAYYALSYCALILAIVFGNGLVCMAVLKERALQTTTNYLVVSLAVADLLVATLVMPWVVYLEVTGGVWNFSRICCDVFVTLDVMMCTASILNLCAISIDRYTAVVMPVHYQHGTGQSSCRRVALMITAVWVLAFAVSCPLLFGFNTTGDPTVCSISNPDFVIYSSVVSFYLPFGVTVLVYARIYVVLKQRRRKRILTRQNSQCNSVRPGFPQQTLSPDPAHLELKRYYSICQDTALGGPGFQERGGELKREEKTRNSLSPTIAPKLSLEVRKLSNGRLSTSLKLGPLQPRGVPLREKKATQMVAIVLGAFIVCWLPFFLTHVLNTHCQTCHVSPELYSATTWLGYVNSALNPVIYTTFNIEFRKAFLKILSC
Method: as §1, §2

[9] = molecular target: T8, hD4.2 receptor (Homo sapiens, UniProt P21917, DEL265-296); test: Radioligand binding, dopamine D4 ([3H]YM-09151-2); details: Table 4; [3H]YM-09151-2 0.06 nM; read-out: Binding affinity, IC50 (nM) D4
T8 construct: purchased BioSignal Packard Inc., Montreal, Canada
T8 sequence (P21917 with tags, fused parts or gaps DEL265-296): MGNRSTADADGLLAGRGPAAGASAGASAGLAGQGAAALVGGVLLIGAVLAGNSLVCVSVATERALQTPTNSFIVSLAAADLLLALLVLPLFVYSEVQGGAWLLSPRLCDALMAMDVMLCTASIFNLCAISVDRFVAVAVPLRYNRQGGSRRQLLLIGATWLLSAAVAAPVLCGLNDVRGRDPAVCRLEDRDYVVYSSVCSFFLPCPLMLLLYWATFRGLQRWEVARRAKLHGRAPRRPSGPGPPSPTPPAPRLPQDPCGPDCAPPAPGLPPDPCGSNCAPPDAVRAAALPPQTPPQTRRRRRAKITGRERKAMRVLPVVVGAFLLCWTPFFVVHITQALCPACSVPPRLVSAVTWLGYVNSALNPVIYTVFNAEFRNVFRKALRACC
Method: as §1, §2

[10] = Table 2, 1.87 nM [3H]LSD, 37 C, 60 min, read-out: IC50 (nM), binding affinity to the 5-HT6 receptor
[11] = Table 4, read-out: Binding affinity, IC50 (nM) 5-HT6

SMILES	IC50 [1, 10]	IC50 [1, 11]	IC50 [2]	IC50 [3]	IC50 [4]	IC50 [5]	IC50 [6]	IC50 [7]	IC50 [8]	IC50 [9]	melting point
CN1CCN(c2cc(Cl)cc3c2C(=O)[C@@](C)(c2ccc(N)cc2)C(=O)N3Cc2ccccc2)CC1 (stereo in doubt) [Example 4, 3-(4-Amino-phenyl)-1-benzyl-7-chloro-3-methyl-5-(4-methyl-piperazin-1-yl)-1H-quinoline-2,4-dione]	7.4 nM	15 nM	5050 nM	5800 nM	7010 nM	5780 nM	7090 nM	6550 nM	8110 nM	8190 nM	–
CCN(CC)c1ccc(C2(C)C(=O)c3c(N4CCN(C)CC4)cc(Cl)cc3N(Cc3ccccc3)C2=O)cc1 (stereo not shown) [Example 5, 1-Benzyl-7-chloro-3-(4-diethylamino-phenyl)-3-methyl-5-(4-methyl-piperazin-1-yl)-1H-quinoline-2,4-dione]	37.8 nM	16.8 nM	7620 nM	6450 nM	7540 nM	4660 nM	7700 nM	7050 nM	7080 nM	8750 nM	204 to 206 °C
CN1CCN(c2cc(Cl)cc3c2C(=O)C(C)(c2ccc(O)cc2)C(=O)N3Cc2cccc([N+](=O)[O-])c2)CC1 (stereo not shown) [Example 8, 7-Chloro-3-(4-hydroxy-phenyl)-3-methyl-5-(4-methyl-piperazin-1-yl)-1-(3-nitro-benzyl)-1H-quinoline-2,4-dione]	23.8 nM	16.8 nM	9440 nM	7510 nM	6950 nM	8810 nM	7040 nM	7290 nM	9020 nM	9150 nM	262 to 264 °C
CC1(c2ccc(N)cc2)C(=O)c2c(N3CCNCC3)cc(Cl)cc2N(Cc2ccccc2)C1=O (stereo not shown) [Example 16, 3-(4-Amino-phenyl)-1-benzyl-7-chloro-3-methyl-5-piperazin-1-yl-1H-quinolin-2,4-dione]	3.2 nM	17.6 nM	9350 nM	6020 nM	8080 nM	9880 nM	9010 nM	6740 nM	9070 nM	8910 nM	–
CCN(CC)c1ccc(C2(C)C(=O)c3c(N4CCNCC4)cc(Cl)cc3N(Cc3ccccc3)C2=O)cc1 (stereo not shown) [Example 17, 1-Benzyl-7-chloro-3-(4-diethylamino-phenyl)-3-methyl-5-piperazin-1-yl-1H-quinoline-2,4-dione]	41.5 nM	21.5 nM	> 10000 nM	8550 nM	7550 nM	9810 nM	8410 nM	9050 nM	8200 nM	9110 nM	–
CCNc1ccc(C2(C)C(=O)c3c(N4CCNCC4)cc(Cl)cc3N(Cc3ccccc3)C2=O)cc1 (stereo not shown) [Example 18, 1-Benzyl-7-chloro-3-(4-ethylamino-phenyl)-3-methyl-5-piperazin-1-yl-1H-quinoline-2,4-dione]	14.6 nM	15.5 nM	6010 nM	8050 nM	7010 nM	8450 nM	> 10000 nM	> 1000 nM	8900 nM	8990 nM	–
CC1(c2ccc(O)cc2)C(=O)c2c(N3CCNCC3)cc(Cl)cc2N(Cc2cccc(N)c2)C1=O (stereo not shown) [Example 26, 1-(3-Amino-benzyl)-7-chloro-3-(4-hydroxy-phenyl)-3-methyl-5-piperazin-1yl-1H-quinoline-2,4-dione]	8.7 nM	19 nM	5630 nM	5900 nM	5750 nM	7330 nM	6950 nM	8410 nM	9120 nM	9410 nM	–
CC1(c2ccc(O)cc2)C(=O)c2c(N3CCNCC3)cc(Cl)cc2N(Cc2ccccc2O)C1=O (stereo not shown) [Example 30, 7-Chloro-1-(2-hydroxy-benzyl)-3-(4-hydroxy-phenyl)-3-methyl-5-piperazin-1-yl-1H-quinoline-2,4-dione]	15.9 nM	18.1 nM	7340 nM	7240 nM	8400 nM	9450 nM	8000 nM	7650 nM	9780 nM	8760 nM	–
CC1(c2ccc(O)cc2)C(=O)c2c(N3CCNCC3)cc(Cl)cc2N(Cc2cccc(Br)c2)C1=O (stereo not shown) [Example 34, 1-(3-Bromo-benzyl)-7-chloro-3-(4-hydroxy-phenyl)-3-methyl-5-piperazin-1-yl-1H-quinoline-2,4-dione]	3.6 nM	16.8 nM	9070 nM	7550 nM	6960 nM	7030 nM	9160 nM	8050 nM	9000 nM	9350 nM	–
CC1(c2ccc(O)cc2)C(=O)c2c(N3CCNCC3)cc(Cl)cc2N(Cc2cccnc2)C1=O (stereo not shown) [Example 38, 7-Chloro-3-(4-hydroxy-phenyl)-3-methyl-5-piperazin-1-yl-1-pyridin-3-ylmethyl-1H-quinoline-2,4-dione]	30.6 nM	20.4 nM	6410 nM	8450 nM	8400 nM	9140 nM	9410 nM	7690 nM	9310 nM	9240 nM	–
CC1(c2ccc(O)cc2)C(=O)c2c(N3CCNCC3)cc(Cl)cc2N(Cc2ccc3ccccc3c2)C1=O (stereo not shown) [Example 40, 7-Chloro-3-(4-hydroxy-phenyl)-3-methyl-1-naphthalen-2-ylmethyl-5-piperazin-1-yl-1H-quinoline-2,4-dione]	55.7 nM	18.2 nM	7810 nM	7510 nM	9480 nM	8510 nM	7510 nM	8540 nM	9310 nM	8980 nM	–
